Experimental data from article PMC8069832, “New Amides and Phosphoramidates Containing Selenium: Studies on Their Cytotoxicity and Antioxidant Activities in Breast Cancer” (Antioxidants, 2021).
Where two headings read alike, the source gives them in different places.

Columns and labels:
[1] = DPPH radical scavenging assay; conditions: for DPPH activity inhibition: after 30 min
Description: The DPPH (1,1-diphenyl-2-picrylhydrazyl radical) assay measures the hydrogen donation ability of the antioxidant to convert the stable DPPH free radical into 1,1-diphenyl-2-(2,4,6-trinitrophenyl)-hydrazine. After radical reaction with the compounds, a decrease in the absorbance was detected at 517 nm, which is accompanied by a change of color from violet to light-yellow. The target compounds were dissolved in methanol to make 1 mg/mL stock solutions, which were diluted to five concentrations as test samples. Ascorbic acid was used as a standard, and the experiment was carried out on 96-well plates. The DPPH solution was prepared at a 100 µM concentration. For each test, 100 µL of DPPH solution was added to 100 µL of methanolic solution containing the tested derivatives, and the absorbance was determined at different time points. All the measurements were carried out in triplicate. Results were expressed as the percentage of the radical scavenged, calculated using the following formula:(1) % DPPH radical scavenging=Acontrol − Asample/Acontrol × 100 where Acontrol refers to the absorbance of the negative control, and Asample refers to the absorbance of the tested compounds. Results are expressed as a percentage of DPPH radical scavenged ± SEM.
. Ascorbic acid and Trolox were used as radical scavenger gold standards. […]. No correlation was found for either structure–radical scavenging activity or antitumor–radical scavenging activity, except for compound I.2f, one of the selected cytotoxic agents. To further confirm this antioxidant activity, three compounds (I.1e, I.1g and I.2i) were also evaluated as DPPH radical scavengers at a lower concentration of 0.003 mg/mL (Figure 3B).

[2] = test system: MCF-7; assay: cells; conditions: Homo sapiens, MCF7, 48 h; for activity at 10 µM: read-out: Cell growth (%) MCF-7; for GI50: read-out: GI50 MCF-7, 48 h, average ± SEM; for CC50: read-out: LC50 MCF-7; for IC (TGI): read-out: TGI MCF-7
[3] = test system: CCRF-CEM; assay: cells; conditions: Homo sapiens, 48 h; for activity at 10 µM: read-out: Cell growth (%) CCRF-CEM; for GI50: read-out: GI50 CCRF-CEM; for CC50: read-out: LC50 CCRF-CEM; for IC (TGI): read-out: TGI CCRF-CEM
[4] = test system: HT-29; assay: cells; conditions: Homo sapiens, HT-29, 48 h; for activity at 10 µM: read-out: Cell growth (%) HT-29; for GI50: read-out: GI50 HT-29; for CC50: read-out: LC50 HT-29; for IC (TGI): read-out: TGI HT-29
[5] = test system: BEAS-2B; assay: MTT cytotoxicity in nonmalignant bronchial epithelium cells; assay type: cell-based; conditions: for GI50 / IC (TGI): Homo sapiens, BEAS-2B, 48 h; for GI50: read-out: GI50 BEAS-2B; for IC (TGI): read-out: TGI BEAS-2B; for Selectivity index (SI) = GI50 (BEAS-2B)/GI50 (HTB-54): lung
Description: (§1) Cell lines were provided by the European Collection of Cell Cultures (ECACC) or by the American Type Culture Collection (ATCC). Seven cell lines were used: MCF-7 (breast adenocarnicoma), 184B5 (nonmalignant, mammary gland derived), CCRF-CEM (lymphoblastic leukemia), HT-29 (colon carcinoma), HTB-54 (lung carcinoma), BEAS-2B (nonmalignant, derived from the bronchial epithelium) and PC-3 (prostate carcinoma). MCF-7, CCRF-CEM, HT-29, HTB-54, BEAS-2B and PC-3 cell lines were grown in RPMI medium (Gibco) supplemented with 10% fetal bovine serum (FBS; Gibco), 100 units/mL penicillin and […] streptomycin (Gibco). 184B5 cells were grown in DMEM/F12 medium supplemented with 5% FBS, 1 × ITS (Lonza), 100 nM hydrocortisone (Aldich), 2 mM sodium pyruvate (Lonza), 20 ng/mL EGF (Sigma-Aldrich), 0.3 nM trans-retinoic acid (Sigma-Aldrich), 100 units/mL penicillin and […] streptomycin. Cells were maintained at 37 °C and 5% CO2.
(§2) The cytotoxic effect of each substance was tested by the MTT method. Each compound was initially dissolved in DMSO at a concentration of 0.01 M, and serial dilutions were prepared with nonsupplemented medium. The cytotoxic effect of each compound was tested at 50 and 10 µM as a first screening. […]
(§3) A total of 1 × 10^4 cells/well in 96-well plates were treated with increasing concentrations of the corresponding compounds for 48 h at 37 °C in a humidified atmosphere containing 5% CO2. Then, cells were incubated with 50 µL of MTT (2 mg/mL stock) for 4 h. The medium was then removed by aspiration, and the formazan crystals were dissolved in […] of DMSO. […] Data were obtained from at least 3 independent experiments performed in quadruplicate. The standard error of the means (SEM) for the cytotoxic parameters was calculated applying the standard deviation formula to the mean values of each parameter for the three independent experiments performed.
(§4) . Cisplatin was used as a standard drug. […]. […] The presence of electron-withdrawing groups (-NO2, -CF3, -Cl) in the phenyl ring favored the cytotoxic activity in the amides, but in the phosphoramidates, the best results were obtained for aliphatic chains methoxy (II.1b, II.2b) and ethoxy (II.1d, II.2d). […].
(§5) The lack of selectivity toward cancerous cells is one of the major issues during the discovery and development of new anticancer agents. Therefore, we evaluated the cytotoxic activity of our compounds against two cell lines derived from nonmalignant breast tissue (184B5) and no malignant bronchial epithelium (BEAS-2B) (Table 2). […].

[6] = as above; assay type: cell-based; conditions: human
Description: as §1, §2, §3, §4, §5

[7] = test system: MCF-7; conditions: read-out: GI50 MCF-7; 48 h, average ± SEM
[8] = test system: HTB-54; assay: cells; assay type: cell-based; conditions: Homo sapiens; for GI50: read-out: GI50 HTB54; for CC50: read-out: LC50 HTB54; for IC (TGI): read-out: TGI HTB54
Description: as §1, §2, §3, §4

[9] = test system: PC-3; assay: cells; assay type: cell-based; conditions: Homo sapiens; for GI50: read-out: GI50 PC-3; for LC50: read-out: LC50 PC-3; for IC (TGI): read-out: TGI PC-3
Description: as §1, §2, §3, §4

[10] = test system: 184B5; assay: MTT cytotoxicity in nonmalignant mammary gland derived cells; assay type: cell-based; conditions: for GI50 / IC (TGI): Homo sapiens; for GI50: read-out: GI50 184B5; for IC (TGI): read-out: TGI 184B5; for Selectivity index (SI) = GI50 (184B5)/GI50 (MCF-7): breast
Description: as §1, §2, §3, §4, §5

[11] = as above; assay type: cell-based; conditions: human
Description: as §1, §2, §3, §4, §5

[12] = nonmalignant cells, 48 h, read-out: LC50 BEAS-2B
[13] = nonmalignant cells, 48 h, read-out: LC50 184B5
[14] = 184B5, nonmalignant cells, 48 h

SMILES | DPPH radical scavenging activity ([1]; 0.003 mg/mL) | DPPH activity inhibition ([1]; 0.03 mg/mL) | activity at 10 µM [2] [%] | activity at 10 µM [3] [%] | activity at 10 µM [4] [%] | GI50 [2] [µM] | CC50 [2] [µM] | IC (TGI) [2] [µM] | GI50 [3] [µM] | CC50 [3] [µM] | IC (TGI) [3] [µM] | Selectivity index (SI) = GI50 (BEAS-2B)/GI50 (HTB-54) [5] | GI50 [4] [µM] | CC50 [4] [µM] | IC (TGI) [4] [µM] | CC50 ([8]; HTB-54, 48 h) [µM] | LC50 ([9]; PC-3, 48 h) [µM] | Selectivity index (SI) = GI50 (184B5)/GI50 (MCF-7) [10] | GI50 ([5]; nonmalignant cells) [µM] | IC (TGI) ([5]; nonmalignant cells) [µM] | further results
N#C[Se]c1ccc(NC(=O)c2cccs2)cc1 [I.2i] | some moderate effect was observed | greater than 35% | 74.5 | 43.6 | 85.3 |  |  |  |  |  |  |  |  |  |  |  |  |  |  |  | DPPH radical scavenging activity ([1]; 0.03 mg/mL, 0-120 min): the most active radical scavenger
Cc1ccc(C(=O)Nc2ccc([Se][Se]c3ccc(NC(=O)c4ccc(C)cc4)cc3)cc2)cc1 [I.1g] | some moderate effect was observed | greater than 35% | 57.5 | 105 | 109 |  |  |  |  |  |  |  |  |  |  |  |  |  |  |  | 
N#C[Se]c1ccc(NC(=O)c2ccno2)cc1 [I.2j] |  | greater than 35% | 91 | 48.4 | 90.8 |  |  |  |  |  |  |  |  |  |  |  |  |  |  |  | 
COP(=O)(Nc1ccc([Se]C#N)cc1)OC [II.2b] |  |  | -5.82 | -67.4 | -69.4 | < 1 | 9.1 ± 0.7 | 5 ± 1 | 1.6 ± 0.2 | 4.8 ± 0.3 | 3.2 ± 0.2 | 0.84 | 2 ± 0.3 | 5 ± 0.1 | 3.5 ± 0.1 | 34.6 ± 0.4 | 49 ± 0.7 | 7.56 |  |  | GI50 [5]: 5.22 µM; IC (TGI) [5]: 6.8 µM; LC50 (50% lethal concentration) at 48 h [6, 12]: 8.38 µM; GI50 [7]: 0.6 ± 0.2 µM; GI50 ([8]; HTB-54, 48 h): 6.2 ± 0.2 µM; IC (TGI) ([8]; HTB-54, 48 h): 8.6 ± 0.4 µM; GI50 ([9]; PC-3, 48 h): 6.4 ± 0.2 µM; IC (TGI) ([9]; PC-3, 48 h): 9.3 ± 0.1 µM; GI50 ([10]; 184B5, 48 h): 5.44 µM; IC (TGI) ([10]; 184B5, 48 h): 6.94 µM; CC50 at 48 h [11, 13]: 8.44 µM
CSc1ccc(C(=O)Nc2ccc([Se][Se]c3ccc(NC(=O)c4ccc(SC)cc4)cc3)cc2)cc1 [I.1n] |  | greater than 35% | 64 | 72.1 | 50.6 |  |  |  |  |  |  |  |  |  |  |  |  |  |  |  | 
O=C(Nc1ccc([Se][Se]c2ccc(NC(=O)c3ccc(Cl)cc3)cc2)cc1)c1ccc(Cl)cc1 [I.1b] |  |  | 19.8 | 45.5 | -10.7 | 4.6 ± 0.5 | > 100 | > 100 | 9 ± 1.6 | > 100 | 72.6 ± 1.1 |  | 3 ± 1.8 | > 100 | 7.7 ± 0.6 | > 100 | > 100 | 1.57 | 1.11 | 42.8 | LC50 (50% lethal concentration) at 48 h [6]: > 100 µM; GI50 ([8]; HTB-54, 48 h, average ± SEM): > 100 µM; IC (TGI) ([8]; HTB-54, 48 h, average ± SEM): > 100 µM; GI50 ([9]; PC-3, 48 h, average ± SEM): 7.7 ± 2.2 µM; IC (TGI) ([9]; PC-3, 48 h, average ± SEM): > 100 µM; GI50 [10, 14]: 7.08 µM; IC (TGI) [10, 14]: > 100 µM; LC50 (50% lethal concentration) at 48 h [11]: > 100 µM
COP(=O)(Nc1ccc([Se][Se]c2ccc(NP(=O)(OC)OC)cc2)cc1)OC [II.1b] |  |  | -13.9 | -74.1 | 70.7 | 4.3 ± 0.6 | 56.9 ± 5.4 | 8.8 ± 0.1 | 2 ± 0.1 | 8 ± 2.8 | 3.9 ± 0.4 | 0.84 | 20 ± 3.1 | 74.9 ± 0.6 | 47.4 ± 2 |  |  | 1.36 | 6.48 | 41.3 | LC50 (50% lethal concentration) [6, 12]: > 100 µM; GI50 ([8]; HTB-54, 48 h, average ± SEM): 7.2 ± 3.2 µM; CC50 ([8]; HTB-54, 48 h, average ± SEM): 76 ± 4.2 µM; IC (TGI) ([8]; HTB-54, 48 h, average ± SEM): 37.1 ± 3.2 µM; GI50 ([9]; PC-3, 48 h, average ± SEM): 17.1 ± 1.7 µM; LC50 ([9]; PC-3, 48 h, average ± SEM): 76.6 ± 2.5 µM; IC (TGI) ([9]; PC-3, 48 h, average ± SEM): 46.9 ± 2.3 µM; GI50 [10, 14]: 5.75 µM; IC (TGI) [10, 14]: 7.2 µM; CC50 [11, 13]: 8.65 µM
O=C(Nc1ccc([Se][Se]c2ccc(NC(=O)c3ccc([N+](=O)[O-])cc3)cc2)cc1)c1ccc([N+](=O)[O-])cc1 [I.1e] | some moderate effect was observed | greater than 35% | 45.2 | 35.4 | 49.2 | 7.4 ± 1 | 73.4 ± 0.1 | 40.1 ± 0.1 | 6.5 ± 1.5 | 67 ± 2 | 33.8 ± 2 | 0.02 | 16.8 ± 2.5 | 72.3 ± 1.8 | 44.6 ± 3.1 | 72.8 ± 1.4 | 64.9 ± 1.1 | 1.14 | 0.42 | 4.8 | LC50 (50% lethal concentration) at 48 h [6]: 15.8 µM; GI50 ([8]; HTB-54, 48 h, average ± SEM): 16.9 ± 3.1 µM; IC (TGI) ([8]; HTB-54, 48 h, average ± SEM): 44.8 ± 2.3 µM; GI50 ([9]; PC-3, 48 h, average ± SEM): 2.5 ± 0.2 µM; IC (TGI) ([9]; PC-3, 48 h, average ± SEM): 28.5 ± 1.9 µM; GI50 [10, 14]: 7.76 µM; IC (TGI) [10, 14]: 33.8 µM; LC50 (50% lethal concentration) at 48 h [11]: 68.2 µM
